# “Also recorded” adds a separate entry of the source.
# Biological target: T1, Sema3A (Mus musculus, UniProt O08665)
# T1 construct: expressed in transfected cells; host or cells: COS7
# T1 sequence (O08665 21-772): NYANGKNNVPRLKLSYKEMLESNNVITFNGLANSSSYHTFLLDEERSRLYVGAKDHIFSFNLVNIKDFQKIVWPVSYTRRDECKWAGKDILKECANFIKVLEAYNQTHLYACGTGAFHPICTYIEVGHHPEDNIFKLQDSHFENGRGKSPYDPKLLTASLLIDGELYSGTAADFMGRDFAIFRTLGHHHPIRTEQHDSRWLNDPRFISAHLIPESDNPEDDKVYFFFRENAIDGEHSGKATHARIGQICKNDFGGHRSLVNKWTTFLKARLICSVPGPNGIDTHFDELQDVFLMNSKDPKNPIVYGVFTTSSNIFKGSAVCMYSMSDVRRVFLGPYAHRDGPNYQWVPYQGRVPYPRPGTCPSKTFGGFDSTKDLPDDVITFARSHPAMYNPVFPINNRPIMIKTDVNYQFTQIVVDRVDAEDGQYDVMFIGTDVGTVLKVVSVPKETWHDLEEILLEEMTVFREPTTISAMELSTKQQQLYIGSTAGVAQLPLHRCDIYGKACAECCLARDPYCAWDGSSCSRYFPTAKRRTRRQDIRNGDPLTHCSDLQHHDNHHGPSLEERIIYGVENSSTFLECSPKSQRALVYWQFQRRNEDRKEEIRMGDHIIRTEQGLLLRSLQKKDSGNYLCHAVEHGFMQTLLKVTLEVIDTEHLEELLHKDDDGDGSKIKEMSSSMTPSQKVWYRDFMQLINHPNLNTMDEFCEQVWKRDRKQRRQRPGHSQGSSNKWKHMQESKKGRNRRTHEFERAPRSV
# Experiment: Collagen gel co-culture: suppression of neurite outgrowth inhibitory action of Sema3A
# Type: cell-based
# Parameters: key to suppression of neurite outgrowth inhibitory activity of Sema3A, score / inhibition of neurite outgrowth-inhibitory action of Sema3A, score: neurites outgrew in a complete concentric circular shape just like for the control groups where Sema3A-non-expressing COS7 cells were used, it was scored +++ (a strong inhibitory effect for Sema3A); outgrowth was found almost in a concentric circular shape accompanied with a little suppression of the outgrowth toward the direction of Sema3A-expressing COS cells, it was scored ++; outgrowth toward the direction of Sema3A-expressing COS cells is fairly suppressed to present a crescent shape, it was scored +; outgrowth toward the direction of Sema3A-expressing COS cells was not found at all (no inhibitory effect for Sema3A), it was scored −
# Conditions: for suppression of neurite outgrowth inhibitory activity of Sema3A, score: Example 5
# Protocol: Whether the object compounds (SPF-3059-1, M162, A721) have persistent inhibitory action to Sema3A was analyzed by the collagen gel co-culture method (Neuroprotocols 4, 116, 1994) using Sema3A-expressing COS7 cell clumps and 7- or 8-day-old chick embryo dorsal root ganglions. The Sema3A-expressing COS7 cell clumps were generated as follows. 1 μg of Sema3A-expression plasmid was introduced into COS7 cells (100000 cells/35 mm culture plate), which were cultured overnight, with the FuGENE6 transfection reagent (Roche). 2.5 hours after the starting of the transfection, the COS7 cells were collected by trypsinization and centrifugation, and re-suspended in a medium of 200 μl. 20 μl of the cell suspension was placed on the lid of the culture plate (inside) and the lid was turned over, and then the suspension was cultivated for 20 hours (hanging drop culture) (Cell 78, 425, 1994). When the culture was over, aggregated COS7 cells (clump) were collected and trimmed to a diameter of 0.5 mm. The Sema3A-expressing COS7 cell clump and the above-mentioned dorsal root ganglions were placed in parallel at a distance of 0.5 to 1 mm in a 0.2% collagen gel which was then cultivated in a medium containing the aforementioned compounds at various concentrations for 2 days at 37° C. under 5% CO2. Glutaraldehyde was quickly added therein to make the final concentration 1%. The cultures were then left for 1 hour at room temperature so that the tissues were fixed, and the neurite outgrowth was microscopically observed. The results are found in FIG. 4.
# When a medium not containing a subject compound was used, neurites were unable to grow towards the COS7 cell clump with the high concentration of Sema3A and grew only to the opposite direction.
# In a similar way as in Example 4, suppression of the neurite outgrowth inhibitory activity was analyzed for the compounds, SPF-3059-1, SPF-3059-2 and SPF-3059-5. When the neurites outgrew in a complete concentric circular shape just like for the control groups where Sema3A-non-expressing COS7 cells were used, it was scored +++ (a strong inhibitory effect for Sema3A). When the outgrowth was found almost in a concentric circular shape accompanied with a little suppression of the outgrowth toward the direction of Sema3A-expressing COS cells, it was scored ++. […] When the outgrowth toward the direction of Sema3A-expressing COS cells was not found at all (no inhibitory effect for Sema3A), it was scored −.
smiles,measurement,setting,value
CC(=O)c1c(C)c(C(=O)C2COc3cc(O)c(O)c(C(=O)O)c3C2=O)cc2c(=O)c3c(C(=O)O)c(O)c(O)cc3oc12 (stereo not shown) [SPF-3059-1],"suppression of neurite outgrowth inhibitory activity of Sema3A, score",0.5 μg/ml compound,+
same,"suppression of neurite outgrowth inhibitory activity of Sema3A, score",1.0 μg/ml compound,++
same,"suppression of neurite outgrowth inhibitory activity of Sema3A, score",2.0 μg/ml compound,+++
same,persistent inhibitory action to Sema3A (neurite outgrowth toward Sema3A-expressing COS7 cell clump),"collagen gel co-culture, 2 days",persistently inhibit Sema3A activities; also recorded: persistently inhibited the action of Sema3A
